Values joined by “and” are separate entries in the source; they are usually repeats but may differ in a detail not shown here. Identical values can stand only once. Like-named read-outs stand apart in the source and are kept apart here.
Legend:
[1] = Viability (viabilita) used to normalise caspase activity; format: cell-based, human; conditions: human, MCF-7 cells, kontrola = 100;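 further: compound tested at 100 nM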
Description: Supplement pone.0139929.s002.zip/caspases activity.xlsx, sheet "results_viability"

MCF-7 cells = test: Cell cycle analysis by flow cytometry (propidium iodide); format: cell-based, human; conditions: 0.1 μM, 72 h
Description: To examine the effect of the agents on the cell cycle, MCF-7 cells were seeded in 60 mm Petri dishes at a density of 240,000 cells/dish and incubated with Bp4eT or its metabolites for 72 h/37°C. The cells were then harvested, fixed by ethanol and stained by propidium iodide (Molecular Probes, Eugene, OR, USA) for 30 min/37°C, as described previously. Cells were analyzed using Accuri C6 flow cytometer (Becton Dickinson and Company, San Jose, CA USA). Propidium iodide was excited at λex = 488 nm and fluorescence analyzed at λem = 585 nm (FL-2) with a total of 10,000 events collected per analysis.
SigmaStat for Windows 3.5 (Systat Software, San Jose, CA, USA) statistical software package was utilized to analyze results. The data are expressed as the mean ± SD of a given number of experiments. Statistical significance was determined using a one-way ANOVA with a Bonferroni post-hoc test or Student’s t-test. The results were considered to be statistically significant when p < 0.05. The IC50 values were calculated using CalcuSyn 2.0 software (Biosoft, Cambridge, UK). Cell cycle analysis was evaluated using MultiCycle AV Software (Phoenix Flow Systems, San Diego, CA, USA).

[2] = test system: 3T3 mouse embryo fibroblasts; test: MTT cytotoxicity assay, 3T3 cells; format: cell-based; conditions: for IC50: MTT
Summary of the method: (§1)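 Non-cancerous 3T3 mouse embryo fibroblasts were plated at 10,000 cells/well in 96-well plates and cultured for 24 h/37°C. The medium was then replaced with serum- and pyruvate-free DMEM for a further 24 h/37°C. Cells were exposed to agents for 72 h/37°C with 0.1% DMSO present, and viability was measured by MTT.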

[3] = MTT cytotoxicity assay, 3T3 cells; format: cell-based, mouse; conditions: mouse, 3T3 mouse embryo fibroblasts, 3T3, 10 000 b/j; for viability at 72 h, 3 nM: koncentrace 3 nM; for viability at 72 h, 10 nM: koncentrace 10 nM; for viability at 72 h, 30 nM: koncentrace 30 nM; for viability at 72 h, 100 nM: koncentrace 100 nM; for viability at 72 h, 300 nM: koncentrace 300 nM; for viability at 72 h, 1000 nM: koncentrace 1000 nM; for viability at 72 h, 3000 nM: koncentrace 3000 nM
Summary of the method: as §1

caspase 8 = test: Caspase activity, luminescent kit, caspase 8; format: cell-based, human; conditions: for Caspase 8 activity, % of the control: 100 nM, MCF-7, corrected for viability; for kaspáza 8, průměry (means of raw signal): mean of 4 experiments; for kaspáza 8, raw signal / kaspáza 8, signal / viabilita: individual experiments by date
Description: To assess the effect of the compounds on caspase activity, MCF-7 cells were incubated with 100 nM Bp4eT or its metabolites for 3, 24 or 72 h/37°C in 96-well plates, as described above. The cells were then lysed by adding 100 μL of cold lysis buffer (100 mM HEPES, 10 mM CHAPS, 10 mM D-L-dithiothreitol, pH 7.4) to 100 μL of medium in each well. Lysates were immediately frozen at -80°C. Thawed lysates were used to assess caspase activity using luminescent kits for caspases 3/7, 8 and 9 (Promega, Madison, WI, USA). The luminescence was measured using the Tecan Infinite 200M plate reader. Caspase activity in the experimental groups was corrected according to the cellular viability of each group and expressed as a percentage of activity of the untreated control (100%).

[4] = individual experiments, read-out: MTT viability (0 = 100)
[5] = mean, read-out: MTT viability (0 = 100), průměr

## CCNC(=S)NN=C(c1ccccc1)c1ccccn1 [Bp4eT, 2-benzoylpyridine 4-ethyl-3-thiosemicarbazone]
[1]; 3 hodiny
  viability at 3 h, 100 nM: 96.3%
[1]; 24 hodin
  viability at 24 h, 100 nM: 52.8%
[1]; 72 hodin
  viability at 72 h, 100 nM: 27.1%
MCF-7 cells
  G1 phase of the cell cycle: not significantly (p > 0.05) different from the control
MCF-7 cells; control 15%
  Percentage of cells in the S phase: 35%
MCF-7 cells; control 33%
  Percentage of cells in the G2/M phase: 12%
[2]; 3T3, 10 000 b/j, individual experiments, read-out: IC50
  IC50: 1.08 µM and 1.7 µM and 1.48 µM
[2]; 3T3, 10 000 b/j, koncentrace 3 nM, individual experiments
  MTT viability (0 = 100): 107.858 and 101.159 and 95.977
[2]; 3T3, 10 000 b/j, koncentrace 10 nM, individual experiments
  MTT viability (0 = 100): 95.2009 and 97.9751 and 101.968 and 103.897
[2]; 3T3, 10 000 b/j, koncentrace 30 nM, individual experiments
  MTT viability (0 = 100): 82.5017 and 95.1437 and 97.4935 and 93.6042
[2]; 3T3, 10 000 b/j, koncentrace 100 nM, individual experiments
  MTT viability (0 = 100): 72.3252 and 75.1668 and 68.1869
[2]; 3T3, 10 000 b/j, koncentrace 300 nM, individual experiments
  MTT viability (0 = 100): 69.1649 and 63.247 and 72.6411
[2]; 3T3, 10 000 b/j, koncentrace 1000 nM, individual experiments
  MTT viability (0 = 100): 57.0662 and 64.2452 and 55.7111
[2]; 3T3, 10 000 b/j, koncentrace 3000 nM, individual experiments
  MTT viability (0 = 100): 36.2815 and 49.6279 and 43.6868
[2]; Mus musculus, Fibroblast, 3T3, 10 000 b/j, individual experiments, read-out: IC50
  IC50: 0.977 µM
[2]; Mus musculus, Fibroblast, 3T3, 10 000 b/j, mean, read-out: IC50, průměr
  IC50: 1.31 µM
[2]; Mus musculus, Fibroblast, 72 h, 3T3, 72 h/37°C, mean ± SD, n ≥ 4, read-out: IC50
  IC50: 1.31 ± 0.337 µM
[3]; [4]
  viability at 72 h, 3 nM: 101%
  viability at 72 h, 10 nM: 93.7%
  viability at 72 h, 30 nM: 89%
  viability at 72 h, 100 nM: 75.4%
  viability at 72 h, 300 nM: 72.4%
  viability at 72 h, 1000 nM: 49.5%
  viability at 72 h, 3000 nM: 32.5%
[3]; [5]
  viability at 72 h, 3 nM: 102%
  viability at 72 h, 10 nM: 98.6%
  viability at 72 h, 30 nM: 91.5%
  viability at 72 h, 100 nM: 72.8%
  viability at 72 h, 300 nM: 69.4%
  viability at 72 h, 1000 nM: 56.6%
  viability at 72 h, 3000 nM: 40.5%
Caspase 8; 24 h
  Caspase 8 activity, % of the control: 125%
Caspase 8; 72 h
  Caspase 8 activity, % of the control: 189%
Caspase 8; 3 hodiny (3 h), % of control
  kaspáza 8, % kontroly: 95.86%
Caspase 8; 3 hodiny (3 h)
  kaspáza 8, průměry (means of raw signal): 1343.75
Caspase 8; 3 hodiny
  kaspáza 8, raw signal: 2059 and 1157 and 1253.5 and 905.5
Caspase 8; 3 hodiny, mean
  kaspáza 8, raw signal, průměry: 1343.75
Caspase 8; 3 hodiny, mean, normalised to viability
  kaspáza 8, % kontroly: 100.78 % kontroly
Caspase 8; 3 hodiny, normalised to viability
  kaspáza 8, signal / viabilita: 21.3728 and 12.0099 and 13.0116 and 9.399
Caspase 8; 3 hodiny, normalised to viability, mean
  kaspáza 8, signal / viabilita, průměry: 13.9484
Caspase 8; 24 hodin (24 h), % of control
  kaspáza 8, % kontroly: 66.28%
Caspase 8; 24 hodin (24 h)
  kaspáza 8, průměry (means of raw signal): 1049.5
Caspase 8; 24 hodin
  kaspáza 8, raw signal: 1182.5 and 845.5 and 1242.5 and 927.5
Caspase 8; 24 hodin, mean
  kaspáza 8, raw signal, průměry: 1049.5
Caspase 8; 24 hodin, mean, normalised to viability
  kaspáza 8, % kontroly: 125.02 % kontroly
Caspase 8; 24 hodin, normalised to viability
  kaspáza 8, signal / viabilita: 22.3747 and 15.9981 and 23.51 and 17.5497
Caspase 8; 24 hodin, normalised to viability, mean
  kaspáza 8, signal / viabilita, průměry: 19.8581
Caspase 8; 72 hodin (72 h), % of control
  kaspáza 8, % kontroly: 50.72%
Caspase 8; 72 hodin (72 h)
  kaspáza 8, průměry (means of raw signal): 3576.88
Caspase 8; 72 hodin
  kaspáza 8, raw signal: 5283 and 3499.5 and 2666 and 2859
Caspase 8; 72 hodin, mean
  kaspáza 8, raw signal, průměry: 3576.88
Caspase 8; 72 hodin, mean, normalised to viability
  kaspáza 8, % kontroly: 188.91 % kontroly
Caspase 8; 72 hodin, normalised to viability
  kaspáza 8, signal / viabilita: 195.017 and 129.181 and 98.4127 and 105.537
Caspase 8; 72 hodin, normalised to viability, mean
  kaspáza 8, signal / viabilita, průměry: 132.037

Reference: paper PMC4604124, “In Vitro Characterization of the Pharmacological Properties of the Anti-Cancer Chelator, Bp4eT, and Its Phase I Metabolites” (PLoS ONE, 2015)
